This note sets out measurements from ChEMBL document CHEMBL1201862, “PubChem BioAssay data set” (2004).

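Following 48 hours of exposure in 96-well plates, responses at five concentrations were used to interpolate endpoints linearly. Here, GI50 denotes the concentration required for 50% inhibition of growth.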 Calls of active or inactive are those of the source. Rule as the data show it: active = GI50 up to about 1.1 µM and inactive = higher. A value given as a limit tells only on which side of the number the result lay.

What all share (assay): inhibition of tumour cell growth, NCI panel, 48 h
Assay [1] has as its system DMS-114.
For assay [2], the system named is LXFL 529.
The test system of assay [3] is DMS-273.
The test system of assay [4] is DLD-1.
The subject of assay [5] is XF498.
The test system of assay [6] is HOP-18.
For assay [7], the system named is SNB-78.
The subject of assay [8] is M19-MEL.
Assay [9] has as its system RXF 631.

As for `C/C(=N\NS(=O)(=O)c1ccc([N+](=O)[O-])cc1)c1ccc[n+]([O-])n1`, the GI50 in [1] is 1.77 µM (inactive); in assay [2] it was 2.21 µM (inactive); in [3], 0.764 µM (active); in [4], 2.58 µM (inactive); in [5], 2.64 µM (inactive); in [6], 11.6 µM (inactive). Besides, the values for the GI50 in assay [7] and in assay [8] were 4.48 µM (inactive) and 2.04 µM (inactive), respectively.
In the case of `O=C1c2ccccc2C(=O)c2c1oc1cc(O)c(Cl)cc21`, the GI50 in assay [1] is 2.23 µM (inactive); in assay [2] it was 20.5 µM (inactive); in assay [3], 2.41 µM (inactive); in [4], 6.22 µM (inactive); in assay [5] it was 7.41 µM (inactive); in assay [6], 1.73 µM (inactive). The GI50 in assay [7] is 5.69 µM (inactive); in assay [8] it was 0.177 µM (active).
As to `C[Si](C)(C)c1ccc(CC2(Cc3ccc([Si](C)(C)C)cc3)CCNC2)cc1`, the GI50 in assay [1] was 2.13 µM (inactive); in assay [2], 2.18 µM (inactive); in assay [3], 1.94 µM (inactive); in assay [4] it was 2.51 µM (inactive); in [9], 2.32 µM (inactive); in [6] it was 2.77 µM (inactive). The GI50 in assay [7] was 3.13 µM (inactive); in assay [8], 1.95 µM (inactive).
With `CC(=O)N/N=C1\CC(C)(C)C2CCC1C2` (stereo not drawn), the GI50 in assay [1], in assay [2], in [3], in assay [5], in assay [7] and in assay [8] was > 100 µM (inactive) each time.
`CN(C)C(=O)OC(Cn1cncn1)c1ccc(Cl)cc1Cl` (stereo not drawn): the GI50 in assay [1], in assay [2], in [3], in assay [4], in assay [6] and in assay [7] was > 100 µM (inactive) each time. The GI50 in assay [8] was > 100 µM (inactive).
In the case of `O=[N+]([O-])c1ccc(C2CC(c3ccc(NCc4nc5ccccc5[nH]4)cc3)=NO2)cc1` (stereo not drawn), the GI50 was 11.4 µM (inactive) in assay [1]; 16.4 µM (inactive) in assay [2]; 32.1 µM (inactive) in assay [3]; 45 µM (inactive) in [4]; > 100 µM (inactive) in assay [6]; 33.7 µM (inactive) in assay [8].
With `COC1/C=C/O[C@@]2(C)Oc3c(C)c(O)c4c(O)c(cc(O)c4c3C2=O)NC(=O)/C(C)=C\C=C\[C@H](C)C(O)[C@@H](C)[C@@H](O)[C@@H](C)[C@H](OC(C)=O)[C@@H]1C` (stereo partly drawn), the GI50 in assay [1] is 7.91 µM (inactive); in assay [3], 17.9 µM (inactive); in [4] it was 10.1 µM (inactive); in [5], 14.8 µM (inactive); in assay [6] it was 17.7 µM (inactive); in assay [7] it was 32.8 µM (inactive). In addition, in [8], the GI50 is 12.1 µM (inactive).
For `NC1N=Nc2ccccc21` (stereo not drawn), the GI50 in [1], in [2], in [3], in assay [4], in assay [9] and in assay [5] was > 100 µM (inactive) throughout. In assay [8], the GI50 is > 100 µM (inactive).
Consider `N#CCCN(c1ccc(/C=N/c2ccccc2)cc1)S(=O)(=O)c1ccccc1`, for which the GI50 is > 100 µM (inactive) in assay [1]; 4.44 µM (inactive) in assay [2]; > 100 µM (inactive) in assay [3]; > 100 µM (inactive) in assay [4]; 0.834 µM (active) in assay [5]; > 100 µM (inactive) in assay [7]. For the same compound, the GI50 in assay [8] is > 100 µM (inactive).
As for `O=C(/C=N/c1ccccc1[S-])c1ccco1.O=C(/C=N/c1ccccc1[S-])c1ccco1.[Zn+2]`, the GI50 is 21.2 µM (inactive) in assay [1]; 10 µM (inactive) in assay [2]; 4.44 µM (inactive) in [4]; 17 µM (inactive) in assay [9]; 16.8 µM (inactive) in assay [7].
In the case of `O=C1/C(=C/c2ccccc2)CN(C(=O)OCc2ccccc2)C/C1=C\c1ccccc1`, the GI50 is 11.2 µM (inactive) in assay [1]; 5 µM (inactive) in assay [3]; 3.63 µM (inactive) in assay [4]; 16.9 µM (inactive) in [9]; 16.6 µM (inactive) in assay [5]; > 10 µM (inactive) in [6]. The GI50 in assay [7] is 14.8 µM (inactive); in [8], 5.87 µM (inactive).
Consider `CC(=O)OC1COC(N2C(=O)C(=O)c3c(C)cc(Cl)nc32)C(OC(C)=O)C1OC(C)=O` (stereo not drawn), for which the GI50 in assay [1], in assay [2], in assay [3], in assay [4], in assay [5] and in assay [6] was > 100 µM (inactive) each time. Moreover, the GI50 in [7] and in assay [8] was > 100 µM (inactive) in each case.
As for `COc1cccc(C2=NC(C(C)C)CO2)c1` (stereo not drawn), the GI50 in [1], in [2], in assay [3], in assay [4], in assay [5] and in assay [7] was > 100 µM (inactive) each time. Moreover, in assay [8], the GI50 was > 100 µM (inactive).
Take `O=C1C(Cl)C(c2ccc(O)cc2)N1n1cnc2ccccc2c1=O` (stereo not drawn): the GI50 in assay [1] was 28.2 µM (inactive); in [2], 16.7 µM (inactive); in [3], 39.8 µM (inactive); in assay [4], 19.1 µM (inactive); in [5] it was 33.5 µM (inactive); in assay [6], 49.4 µM (inactive). Besides, the GI50 in assay [7] was 49 µM (inactive); in assay [8] it was 22.2 µM (inactive).
Turning to `O=S(=O)(c1ccccc1)C1CN2OC1(S(=O)(=O)c1ccccc1)CC2c1ccc(Br)cc1` (stereo not drawn), the GI50 in assay [1] is > 100 µM (inactive); in [3] it was > 100 µM (inactive); in [4], > 100 µM (inactive); in [9], 26.5 µM (inactive); in assay [5], 18.6 µM (inactive); in assay [8], > 100 µM (inactive).
`Cc1nn(-c2nc3ccccc3s2)c2c1C(=O)c1ccccc1-2`: the GI50 in [1] is > 100 µM (inactive); in assay [2], 74.8 µM (inactive); in assay [3], > 100 µM (inactive); in assay [4], > 100 µM (inactive); in assay [6] it was > 100 µM (inactive); in assay [7], > 100 µM (inactive). The GI50 in assay [8] is > 100 µM (inactive).
As for `COC1OC(C)C(OC(=O)C(C)(C)C)C(OS(=O)(=O)c2ccc(C)cc2)C1OS(=O)(=O)c1ccc(C)cc1` (stereo not drawn), the GI50 in assay [1], in [2], in [3], in assay [4], in assay [6] and in [7] was > 100 µM (inactive) throughout. Besides, the GI50 in assay [8] was > 100 µM (inactive).
Take `COc1ccc2c(c1OC)C(=O)C2`: the GI50 in assay [1], in [2], in assay [3], in [5], in assay [6] and in assay [8] was > 100 µM (inactive) throughout.
Take `CC(C)/C=C1\CCC(CN2CCOCC2)C1=O` (stereo not drawn): the GI50 in [2] is 2.74 µM (inactive); in assay [4], 2.69 µM (inactive); in [5], 18.3 µM (inactive); in [6], 17.7 µM (inactive); in assay [7] it was 12.5 µM (inactive); in assay [8], 23.4 µM (inactive).
Turning to `CCCCCCCCCCCCCC(=S)N/C=C/OC`, the GI50 is 21.7 µM (inactive) in assay [1]; 38.3 µM (inactive) in assay [2]; 33.4 µM (inactive) in assay [4]; 24.3 µM (inactive) in assay [5]; 35.8 µM (inactive) in [6]; 48 µM (inactive) in assay [7]. In addition, in assay [8], the GI50 is 31.1 µM (inactive).
As for `NC(=O)N1N=C2c3ccccc3CC[C@@H]2C1c1ccccc1` (stereo partly drawn), the GI50 was 77.1 µM (inactive) in [1]; > 100 µM (inactive) in assay [2]; > 100 µM (inactive) in assay [3]; > 100 µM (inactive) in assay [4]; > 100 µM (inactive) in [7]; > 100 µM (inactive) in assay [8].
For the compound `COc1ccc(/C=C/c2cc(OC)c(O[Si](C)(C)C(C)(C)C)c(OC)c2)cc1`, the GI50 in assay [1] is 14 µM (inactive); in assay [2], > 100 µM (inactive); in [3] it was 67 µM (inactive); in assay [4], > 100 µM (inactive); in assay [9] it was 73.1 µM (inactive); in assay [5] it was > 100 µM (inactive). In addition, in assay [8], the GI50 is 46.5 µM (inactive).
In the case of `CCCCCCCCCCCOC(=S)NC(C)C`, the GI50 in assay [1] is 17.8 µM (inactive); in assay [2], 25.8 µM (inactive); in assay [3], 18.3 µM (inactive); in [4], 21.4 µM (inactive); in [5], 16.7 µM (inactive); in assay [6], 27.5 µM (inactive). Besides, the GI50 in assay [7] is 33.9 µM (inactive); in assay [8] it was 24.9 µM (inactive).
In the case of `Cc1cc(C)nc(Nc2nc3cc([N+](=O)[O-])ccc3[nH]2)n1`, the GI50 in assay [1], in [2], in [3], in assay [4], in [5] and in [7] was > 100 µM (inactive) each time.
Take `COC1(C)CC2N(C(=O)c3ccccc3)N=C(c3ccccc3)CC2(C)O1` (stereo not drawn): the GI50 is > 100 µM (inactive) in assay [1]; > 100 µM (inactive) in [2]; 44.5 µM (inactive) in [4]; > 100 µM (inactive) in [9]; > 100 µM (inactive) in [5].
For `COc1ccc(/C=C2\CN(C)Cc3c2nc(N)nc3-c2ccc(OC)cc2)cc1`, the GI50 in assay [1] is 65.3 µM (inactive); in assay [2], 49.5 µM (inactive); in assay [3], > 100 µM (inactive); in [4], 57 µM (inactive); in assay [5], 35 µM (inactive); in assay [7], > 100 µM (inactive). In assay [8], the GI50 is 95.3 µM (inactive).
